Measurements published in publication PMC10521662 (Biodesign Research, 2022).

Target: T1, β-PGM (β-phosphoglucomutase) (Pyrococcus horikoshii, UniProt O58510)
T1 construct: gene PH0749; recombinant, plasmid pET20b-βpgm, E. coli BL21(DE3), purified
T1 sequence (O58510 1-230): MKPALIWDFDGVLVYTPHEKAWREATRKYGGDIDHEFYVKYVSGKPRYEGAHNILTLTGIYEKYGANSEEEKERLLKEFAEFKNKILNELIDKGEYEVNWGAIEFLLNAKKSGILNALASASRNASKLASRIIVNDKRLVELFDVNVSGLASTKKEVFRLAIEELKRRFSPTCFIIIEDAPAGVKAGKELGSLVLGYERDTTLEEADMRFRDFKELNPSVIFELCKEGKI
Assay: G6P formation, G6PDH NADH assay at […] nm
Format: biochemical
Settings: 10 mM β-G1P; 10 mM MgCl2; pH 7.0; 37 °C

With `O=P(O)(O)O[C@@H]1O[C@H](CO)[C@@H](O)[C@H](O)[C@H]1O` [β-G1P] the “G6P formation, G6PDH NADH assay at 340 nm” value was “β-PGM was able to utilize β-G1P but showed no activity for α-G1P”.
